These results are taken from US20230081426A1, “COMPOUNDS AND METHODS FOR KRAS MODULATION AND INDICATIONS THEREFOR” (Plexxikon Inc., priority 2020, published 2023).

Assay [1] concerns the target T1, G12D-mutant human KRAS (amino acid residues 1-188) (Homo sapiens, UniProt P01116, G12D).
T1 construct: G12D or G12C-mutant human KRAS (amino acid residues 1-188) with FLAG tag; made in house; host or cells: E. coli
Briefly: KRAS Binding Disruption Assay (AlphaScreen; biotinylated KRpep-2d analogue or RAF1-RBD), G12D. As to conditions: for IC50: geometric mean, read-out: KRAS GMean IC50 (uM) MUTATION: G12D. An outline of the steps: (§1)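 AlphaScreen readout: signal falls as compound displaces biotinylated KRpep-2d analogue or RAF1-RBD from mutant KRAS. Both partners at 5-20 nM, 1 h binding at 25° C, then 10 μg/mL Anti-Flag acceptor and streptavidin donor beads for 1 h. IC50 by nonlinear regression of % inhibition.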

For assay [2], the target named is T2, G12C-mutant human KRAS (amino acid residues 1-188) (Homo sapiens, UniProt P01116, G12C).
T2 construct: G12D or G12C-mutant human KRAS (amino acid residues 1-188) with FLAG tag; made in house; host or cells: E. coli
The assay can be described thus: KRAS Binding Disruption Assay (AlphaScreen; biotinylated KRpep-2d analogue or RAF1-RBD), G12C. The note with it: geometric mean, read-out: KRAS GMean IC50 (uM) MUTATION: G12C. An outline of the steps:
as §1
On the technique in general: Alpha assays give light when donor and acceptor beads are brought close together.

Assay [3] deals with T3, G12V-mutant human KRAS (amino acid residues 1-188) (Homo sapiens, UniProt P01116, G12V).
T3 construct: G12V-mutant human KRAS (amino acid residues 1-188) with FLAG tag was purified from E. coli; made in house; host or cells: E. coli
The assay can be described thus: KRAS Binding Competition Assay (AlphaScreen; biotinylated KRpep-2d analogue), G12V. As to conditions: geometric mean, read-out: KRAS GMean IC50 (uM) MUTATION: G12V.

The structures appear in SMILES notation. Where two headings read alike, the source gives them in different places.

By IC50 is commonly meant the point on the concentration scale where inhibition reaches its midpoint. For `CN1CCC[C@H]1COc1nc(N2C[C@H]3CC[C@@H](C2)N3)c2cc(Cl)c(-c3cc(O)cc4ccccc34)c(F)c2n1` [P-0001, 4-(4-((1R,5S)-3,8-diazabicyclo[3.2.1]octan-3-yl)-6-chloro-8-fluoro-2-(((S)-1-methylpyrrolidin-2-yl)methoxy)quinazolin-7-yl)naphthalen-2-ol], the IC50 was 0.0001 to 10 µM in assay [1] (KRAS G12D); 0.016 µM in assay [1] (Table 3, bridged vs non-bridged R1); 0.0001 to 10 µM in assay [2]; 10 to 100 µM in assay [3]. The “Improved KRAS G12D Biochemical Potency of Compounds with Bridged vs Non-Bridged R^1 Groups” value in assay [1] (Table 3, fold more potent than non-bridged version at the R1 variable) was “P-0001 is about 70 times more potent than its non- bridged version at the R^1 variable”.
On to `Oc1cc(-c2ccc3c(N4C[C@H]5CC[C@@H](C4)N5)nc(OCC45CCCN4CCC5)nc3c2)c2ccccc2c1` [P-0002, 4-(4-((1R,5S)-3,8-diazabicyclo[3.2.1]octan-3-yl)-2-((tetrahydro-1H-pyrrolizin-7a(5H)-yl)methoxy)quinazolin-7-yl)naphthalen-2-ol], for which the IC50 in assay [1] (KRAS G12D), in assay [2] and in assay [3] was 0.0001 to 10 µM throughout.
For `Cc1cccc2cccc(-c3ccc4c(N5C[C@H]6CC[C@@H](C5)N6)nc(OCC56CCCN5CCC6)nc4c3F)c12` [P-0005, 4-((1R,5S)-3,8-diazabicyclo[3.2.1]octan-3-yl)-8-fluoro-7-(8-methylnaphthalen-1-yl)-2-((tetrahydro-1H-pyrrolizin-7a(5H)-yl)methoxy)quinazoline], the IC50 in assay [1] (KRAS G12D) fell in the range of 0.0001 to 10 µM; in assay [2] it was 0.0001 to 10 µM; in assay [3] it was 10 to 100 µM.
Consider `NCC(=O)N1[C@@H]2CC[C@H]1CN(c1nc(OCC34CCCN3CCC4)nc3cc(-c4cc(O)cc5ccccc45)ccc13)C2` [P-0007, 2-amino-1-((1R,5S)-3-(7-(3-hydroxynaphthalen-1-yl)-2-((tetrahydro-1H-pyrrolizin-7a(5H)-yl)methoxy)quinazolin-4-yl)-3,8-diazabicyclo[3.2.1]octan-8-yl)ethan-1-one], for which the half-maximal inhibitory concentration (IC50) in assay [1] (KRAS G12D), in assay [2] and in assay [3] was 0.0001 to 10 µM in each case.
In the case of `O=C(CO)N1[C@@H]2CC[C@H]1CN(c1nc(OCC34CCCN3CCC4)nc3cc(-c4cc(O)cc5ccccc45)ccc13)C2` [P-0008, 2-hydroxy-1-((1R,5S)-3-(7-(3-hydroxynaphthalen-1-yl)-2-((tetrahydro-1H-pyrrolizin-7a(5H)-yl)methoxy)quinazolin-4-yl)-3,8-diazabicyclo[3.2.1]octan-8-yl)ethan-1-one], the IC50 in assay [1] (KRAS G12D), in assay [2] and in assay [3] was 0.0001 to 10 µM in each case.
For the molecule `CN1CCC[C@H]1COc1nc(N2C[C@H]3CC[C@@H](C2)N3)c2cc(F)c(-c3cc(O)cc4ccccc34)c(F)c2n1` [P-0009, 4-(4-((1R,5S)-3,8-diazabicyclo[3.2.1]octan-3-yl)-6,8-difluoro-2-(((S)-1-methylpyrrolidin-2-yl)methoxy)quinazolin-7-yl)naphthalen-2-ol], the IC50 in assay [1] (KRAS G12D), in assay [2] and in assay [3] was 0.0001 to 10 µM each time.
For the molecule `Oc1cc(-c2c(F)cc3c(N4C[C@H]5CC[C@@H](C4)N5)nc(OCC45CCCN4CCC5)nc3c2F)c2ccccc2c1` [P-0010, 4-(4-((1R,5S)-3,8-diazabicyclo[3.2.1]octan-3-yl)-6,8-difluoro-2-((tetrahydro-1H-pyrrolizin-7a(5H)-yl)methoxy)quinazolin-7-yl)naphthalen-2-ol], the IC50 in assay [1] (KRAS G12D), in assay [2] and in assay [3] was 0.0001 to 10 µM throughout.
`Cc1c(-c2cc(O)cc3ccccc23)ccc2c(N3C[C@H]4CC[C@@H](C3)N4)nc(OCC34CCCN3CCC4)nc12` [P-0015, 4-(4-((1R,5S)-3,8-diazabicyclo[3.2.1]octan-3-yl)-8-methyl-2-((tetrahydro-1H-pyrrolizin-7a(5H)-yl)methoxy)quinazolin-7-yl)naphthalen-2-ol]: the IC50 in assay [1] (KRAS G12D), in assay [2] and in assay [3] was 0.0001 to 10 µM each time.
As to `CN1[C@@H]2CC[C@H]1CN(c1nc(OCC34CCCN3CCC4)nc3cc(-c4cc(O)cc5ccccc45)ccc13)C2` [P-0017, 4-(4-((1R,5S)-8-methyl-3,8-diazabicyclo[3.2.1]octan-3-yl)-2-((tetrahydro-1H-pyrrolizin-7a(5H)-yl)methoxy)quinazolin-7-yl)naphthalen-2-ol], the values for the IC50 in assay [1] (KRAS G12D), in assay [2] and in assay [3] were 0.0001 to 10 µM, 10 to 100 µM and 10 to 100 µM, respectively.
On to `CN1CCC[C@H]1COc1nc(N2C[C@H]3CC[C@@H](C2)N3)c2cc(C#N)c(-c3cc(O)cc4ccccc34)c(F)c2n1` [P-0021, 4-((1R,5S)-3,8-diazabicyclo[3.2.1]octan-3-yl)-8-fluoro-7-(3-hydroxynaphthalen-1-yl)-2-(((S)-1-methylpyrrolidin-2-yl)methoxy)quinazoline-6-carbonitrile], for which the IC50 in assay [1] (KRAS G12D), in assay [2] and in assay [3] was 0.0001 to 10 µM each time.
Regarding `O=C(CCn1ccnc1)N1[C@@H]2CC[C@H]1CN(c1nc(OCC34CCCN3CCC4)nc3c(F)c(-c4cc(O)cc5ccccc45)ccc13)C2` [P-0807, 1-((1R,5S)-3-(8-fluoro-7-(3-hydroxynaphthalen-1-yl)-2-((tetrahydro-1H-pyrrolizin-7a(5H)-yl)methoxy)quinazolin-4-yl)-3,8-diazabicyclo[3.2.1]octan-8-yl)-3-(1H-imidazol-1-yl)propan-1-one], the half-maximal inhibitory concentration (IC50) in assay [1] (KRAS G12D) and in assay [2] was 0.0001 to 10 µM throughout.
For `N#CCCC(=O)N1[C@@H]2CC[C@H]1CN(c1nc(OCC34CCCN3CCC4)nc3c(F)c(-c4cc(O)cc5ccccc45)ccc13)C2` [P-0808, 4-((1R,5S)-3-(8-fluoro-7-(3-hydroxynaphthalen-1-yl)-2-((tetrahydro-1H-pyrrolizin-7a(5H)-yl)methoxy)quinazolin-4-yl)-3,8-diazabicyclo[3.2.1]octan-8-yl)-4-oxobutanenitrile], the IC50 in assay [1] (KRAS G12D) and in assay [2] was 0.0001 to 10 µM throughout.
For the molecule `Fc1c(-c2c[nH]c3cccc(F)c23)c(Cl)cc2c(N3C[C@H]4CC[C@@H](C3)N4)nc(OCC34CCCN3CCC4)nc12` [P-0809, 4-((1R,5S)-3,8-diazabicyclo[3.2.1]octan-3-yl)-6-chloro-8-fluoro-7-(4-fluoro-1H-indol-3-yl)-2-((tetrahydro-1H-pyrrolizin-7a(5H)-yl)methoxy)quinazoline], the IC50 in assay [1] (KRAS G12D) was in the range of 0.0001 to 10 µM; in assay [2], 10 to 100 µM.
The like results for `Oc1cc(-c2ccc3c(N4C[C@H]5CC[C@@H](C4)N5)nc(OCC4CCCC4)nc3c2F)c2ccccc2c1` [P-0810, 4-(4-((1R,5S)-3,8-diazabicyclo[3.2.1]octan-3-yl)-2-(cyclopentylmethoxy)-8-fluoroquinazolin-7-yl)naphthalen-2-ol] were, in that order, 0.0001 to 10 µM and 10 to 100 µM.
The like results for `OCCCc1nc(N2C[C@H]3CC[C@@H](C2)N3)c2ccc(-c3cc(O)cc4ccccc34)c(F)c2n1` [P-0811, 4-(4-((1R,5S)-3,8-diazabicyclo[3.2.1]octan-3-yl)-8-fluoro-2-(3-hydroxypropyl)quinazolin-7-yl)naphthalen-2-ol] were, in that order, 0.0001 to 10 µM and 100 to 1000 µM.
For `OC/C=C/c1nc(N2C[C@H]3CC[C@@H](C2)N3)c2ccc(-c3cc(O)cc4ccccc34)c(F)c2n1` [P-0812, 4-(4-((1R,5S)-3,8-diazabicyclo[3.2.1]octan-3-yl)-8-fluoro-2-((E)-3-hydroxyprop-1-en-1-yl)quinazolin-7-yl)naphthalen-2-ol], in that order: 0.0001 to 10 µM and 10 to 100 µM.
